Experiments:
[1] = test system: MCF-7 breast cancer cell line; experiment: MTT antiproliferative assay, MCF-7; assay type: cell-based; details: for IC50: MCF-7, MTT assay
Experimental: (§1) The antiproliferative activity and cytotoxicity of DHA-5-methylisatin hybrids 6a–c and 7a–m against MCF-7, MDA-MB-231, MCF-7/ADR, and MDA-MB-231/ADR (Purchased from Procell) breast cancer cell lines as well as MCF-10A were assessed by 3-(4,5-dimethylthiazol-2-yl)-2,5-diphenyltetrazolium bromide (MTT) assay.
(§2) MCF-7, MDA-MB-231, MCF-7/ADR, and MDA-MB-231/ADR breast cancer cell lines (2 × 10^3) were plated in each well of a 96-well plate and were allowed to adhere and spread for 24 h. The dihydroartemisinin-5-methylisatin hybrids 6a–e and 7a–m were added to a final concentration of 100 µM, and the cells were cultured for 24 h at 37 °C. 3-(4,5-dimethyl-2-thiazolyl)-2,5-diphenyltetrazolium bromide (MTT) solution (10 µL) was added to each well, and the cultures were incubated for an additional 4 h. A further 100 µL of MTT solution was added and incubation continued overnight. The absorbance at 540 nm was determined in each well with a 96-well plate reader. The growth of the treated cells was compared with that of untreated cells.

[2] = test system: MDA-MB-231 breast cancer cell line; experiment: MTT antiproliferative assay, MDA-MB-231; assay type: cell-based; details: for IC50: MDA-MB-231, MTT assay
Experimental: as §1, §2

[3] = test system: MCF-7/ADR breast cancer cell line; experiment: MTT antiproliferative assay, MCF-7/ADR; assay type: cell-based; details: MCF-7/ADR (drug-resistant)
Experimental: as §1, §2

[4] = test system: MDA-MB-231/ADR breast cancer cell line; experiment: MTT antiproliferative assay, MDA-MB-231/ADR; assay type: cell-based; details: MDA-MB-231/ADR (drug-resistant)
Experimental: as §1, §2

[5] = MTT cytotoxicity assay, MCF-10A; details: human, MCF-10A normal breast cells
Experimental: as §1, §2

[6] = test system: normal MCF-10A breast cells
Experimental: as §1, §2

| Compound | IC50 ([1]; Homo sapiens, MCF7) | IC50 ([2]; Homo sapiens) | IC50 ([3]; Homo sapiens, NCI/ADR-RES) | IC50 ([4]; Homo sapiens) | IC50 [1] | IC50 [2] | IC50 [3] | IC50 [4] | IC50 [6] | SI1: selectivity index IC50(MCF-10A)/IC50(MCF-7) [1] | SI2: selectivity index IC50(MCF-10A)/IC50(MDA-MB-231) [2] | IC50 at 24 h [5] |
| --- | --- | --- | --- | --- | --- | --- | --- | --- | --- | --- | --- | --- |
| Cc1ccc2c(c1)C(=O)C(=O)N2CCCOC1O[C@@H]2O[C@@]3(C)CC[C@H]4[C@H](C)CC[C@@H]([C@H]1C)[C@@]24OO3 (stereo partly drawn) [Hybrid 6b, 5-Methyl-1-(3-(((3R,5aS,6R,8aS,9R,12R,12aR)-3,6,9-trimethyldecahydro-12H-3,12-epoxy[1,2]dioxepino[4,3-i]isochromen-10-yl)oxy)propyl)indoline-2,3-dione] | > 100 µM | > 100 µM | 87.4 µM | > 100 µM |  |  |  |  |  |  |  | > 100 µM |
| COc1cccc2c1C(=O)c1c(O)c3c(c(O)c1C2=O)C[C@@](O)(C(=O)CO)C[C@@H]3O[C@H]1C[C@H](N)[C@H](O)[C@H](C)O1 [ADR, Adriamycin, reference compound] | 18.9 µM |  | > 100 µM | > 100 µM |  |  |  |  |  | 3.64 | 14.76 | 68.8 µM |
| 3-(Methoxyimino)-1-(4-(((3R,5aS,6R,8aS,9R,12R,12aR)-3,6,9-trimethyldecahydro-12H-3,12-epoxy[1,2]dioxepino[4,3-i]isochromen-10-yl)oxy)butyl)indolin-2-one [Hybrid 7h] |  |  |  |  | 85.2 µM | 73.9 µM | 77.5 µM | 80.3 µM | > 100 µM |  |  |  |
| 3-((Benzyloxy)imino)-6-methyl-1-(3-(((3R,5aS,6R,8aS,9R,12R,12aR)-3,6,9-trimethyldecahydro-12H-3,12-epoxy[1,2]dioxepino[4,3-i]isochromen-10-yl)oxy)propyl)indolin-2-one [Hybrid 7l] |  |  |  |  | > 100 µM | > 100 µM | > 100 µM | > 100 µM | > 100 µM |  |  |  |
| C[C@@H]1CC[C@H]2[C@@H](C)C(=O)O[C@@H]3O[C@@]4(C)CC[C@@H]1[C@]32OO4 [ART, Artemisinin] |  |  | > 100 µM | > 100 µM |  |  |  |  |  | >1.14 | >1.38 | > 100 µM |
| Cc1ccc2c(c1)C(=O)C(=O)N2CCOC1O[C@@H]2O[C@@]3(C)CC[C@H]4[C@H](C)CC[C@@H]([C@H]1C)[C@@]24OO3 (stereo partly drawn) [Hybrid 6a, 5-Methyl-1-(2-(((3R,5aS,6R,8aS,9R,12R,12aR)-3,6,9-trimethyldecahydro-12H-3,12-epoxy[1,2]dioxepino[4,3-i]isochromen-10-yl)oxy)ethyl)indoline-2,3-dione] | 31.7 µM | 29.1 µM | 25.3 µM | 26.9 µM |  |  |  |  |  | >3.15 | >3.43 | > 100 µM |
| C[C@H]1[C@@H](O)O[C@@H]2O[C@@]3(C)CC[C@H]4[C@H](C)CC[C@@H]1[C@@]24OO3 [DHA, Dihydroartemisinin] |  |  | 79.1 µM |  |  |  |  |  |  | >1.36 | >1.43 | > 100 µM |

The next lines start with results.

| IC50 ([1]; Homo sapiens, MCF7) | IC50 ([2]; Homo sapiens) | IC50 ([3]; Homo sapiens, NCI/ADR-RES) | IC50 ([4]; Homo sapiens) | IC50 [1] | IC50 [2] | IC50 [3] | IC50 [4] | IC50 [6] | Compound | SI1: selectivity index IC50(MCF-10A)/IC50(MCF-7) [1] | SI2: selectivity index IC50(MCF-10A)/IC50(MDA-MB-231) [2] | IC50 at 24 h [5] |
| --- | --- | --- | --- | --- | --- | --- | --- | --- | --- | --- | --- | --- |
| 59.7 µM | 42.3 µM | 49.9 µM | 44.5 µM |  |  |  |  |  | Cc1ccc2c(c1)C(=O)C(=O)N2CCCCOC1O[C@@H]2O[C@@]3(C)CC[C@H]4[C@H](C)CC[C@@H]([C@H]1C)[C@@]24OO3 (stereo partly drawn) [Hybrid 6c, 5-Methyl-1-(4-(((3R,5aS,6R,8aS,9R,12R,12aR)-3,6,9-trimethyldecahydro-12H-3,12-epoxy[1,2]dioxepino[4,3-i]isochromen-10-yl)oxy)butyl)indoline-2,3-dione] | >1.67 | >2.36 | > 100 µM |
| 28.9 µM | 35.1 µM | 30.3 µM | 40.6 µM |  |  |  |  |  | Cc1ccc2c(c1)C(=NNC(N)=S)C(=O)N2CCCCOC1O[C@@H]2O[C@@]3(C)CC[C@H]4[C@H](C)CC[C@@H]([C@H]1C)[C@@]24OO3 (stereo partly drawn) [Hybrid 7g, 2-(5-Methyl-2-oxo-1-(4-(((3R,5aS,6R,8aS,9R,12R,12aR)-3,6,9-trimethyldecahydro-12H-3,12-epoxy[1,2]dioxepino[4,3-i]isochromen-10-yl)oxy)butyl)indolin-3-ylidene)hydrazine-1-carbothioamide] | >3.46 | >2.84 | > 100 µM |
| > 100 µM | > 100 µM | > 100 µM | > 100 µM |  |  |  |  |  | Cc1ccc2c(c1)C(=NOCc1ccccc1)C(=O)N2CCOC1O[C@@H]2O[C@@]3(C)CC[C@H]4[C@H](C)CC[C@@H]([C@H]1C)[C@@]24OO3 (stereo partly drawn) [Hybrid 7k, 3-((Benzyloxy)imino)-5-methyl-1-(2-(((3R,5aS,6R,8aS,9R,12R,12aR)-3,6,9-trimethyldecahydro-12H-3,12-epoxy[1,2]dioxepino[4,3-i]isochromen-10-yl)oxy)ethyl)indolin-2-one] |  |  | > 100 µM |
| 46.7 µM | 48.2 µM | 36.4 µM | 51.1 µM |  |  |  |  |  | Cc1ccc2c(c1)C(=NNC(N)=S)C(=O)N2CCCOC1O[C@@H]2O[C@@]3(C)CC[C@H]4[C@H](C)CC[C@@H]([C@H]1C)[C@@]24OO3 (stereo partly drawn) [Hybrid 7f, 2-(5-Methyl-2-oxo-1-(3-(((3R,5aS,6R,8aS,9R,12R,12aR)-3,6,9-trimethyldecahydro-12H-3,12-epoxy[1,2]dioxepino[4,3-i]isochromen-10-yl)oxy)propyl)indolin-3-ylidene)hydrazine-1-carbothioamide] | >2.14 | >2.07 | > 100 µM |
| 22.1 µM | 26.7 µM | 23.4 µM | 28.5 µM |  |  |  |  |  | Cc1ccc2c(c1)C(=NO)C(=O)N2CCCCOC1O[C@@H]2O[C@@]3(C)CC[C@H]4[C@H](C)CC[C@@H]([C@H]1C)[C@@]24OO3 (stereo partly drawn) [Hybrid 7c, 3-(Hydroxyimino)-5-methyl-1-(4-(((3R,5aS,6R,8aS,9R,12R,12aR)-3,6,9-trimethyldecahydro-12H-3,12-epoxy[1,2]dioxepino[4,3-i]isochromen-10-yl)oxy)butyl)indolin-2-one] | >4.52 | >3.83 | > 100 µM |
| 39 µM | 31.2 µM | 42.1 µM | 34.5 µM |  |  |  |  |  | Cc1ccc2c(c1)C(=NNC(N)=O)C(=O)N2CCCCOC1O[C@@H]2O[C@@]3(C)CC[C@H]4[C@H](C)CC[C@@H]([C@H]1C)[C@@]24OO3 (stereo partly drawn) [Hybrid 7e, 2-(5-Methyl-2-oxo-1-(4-(((3R,5aS,6R,8aS,9R,12R,12aR)-3,6,9-trimethyldecahydro-12H-3,12-epoxy[1,2]dioxepino[4,3-i]isochromen-10-yl)oxy)butyl)indolin-3-ylidene)hydrazine-1-carboxamide] | >2.56 | >3.20 | > 100 µM |
| 69.3 µM | 70.4 µM | 61.8 µM | 72.7 µM |  |  |  |  |  | CCON=C1C(=O)N(CCOC2O[C@@H]3O[C@@]4(C)CC[C@H]5[C@H](C)CC[C@@H]([C@H]2C)[C@@]35OO4)c2ccc(C)cc21 (stereo partly drawn) [Hybrid 7i, 3-(Ethoxyimino)-5-methyl-1-(2-(((3R,5aS,6R,8aS,9R,12R,12aR)-3,6,9-trimethyldecahydro-12H-3,12-epoxy[1,2]dioxepino[4,3-i]isochromen-10-yl)oxy)ethyl)indolin-2-one] | >1.44 | >1.42 | > 100 µM |
| > 100 µM | > 100 µM | > 100 µM | > 100 µM |  |  |  |  |  | Cc1ccc2c(c1)C(=NOCc1ccccc1)C(=O)N2CCCCOC1O[C@@H]2O[C@@]3(C)CC[C@H]4[C@H](C)CC[C@@H]([C@H]1C)[C@@]24OO3 (stereo partly drawn) [Hybrid 7m, 3-((Benzyloxy)imino)-5-methyl-1-(4-(((3R,5aS,6R,8aS,9R,12R,12aR)-3,6,9-trimethyldecahydro-12H-3,12-epoxy[1,2]dioxepino[4,3-i]isochromen-10-yl)oxy)butyl)indolin-2-one] |  |  | > 100 µM |
| 30.3 µM | 42.6 µM | 28.7 µM | 36.4 µM |  |  |  |  |  | Cc1ccc2c(c1)C(=NO)C(=O)N2CCCOC1O[C@@H]2O[C@@]3(C)CC[C@H]4[C@H](C)CC[C@@H]([C@H]1C)[C@@]24OO3 (stereo partly drawn) [Hybrid 7b, 3-(Hydroxyimino)-5-methyl-1-(3-(((3R,5aS,6R,8aS,9R,12R,12aR)-3,6,9-trimethyldecahydro-12H-3,12-epoxy[1,2]dioxepino[4,3-i]isochromen-10-yl)oxy)propyl)indolin-2-one] | >3.30 | >2.34 | > 100 µM |
| 27.2 µM | 19.7 µM | 33.3 µM | 21.6 µM |  |  |  |  |  | Cc1ccc2c(c1)C(=NNC(N)=O)C(=O)N2CCOC1O[C@@H]2O[C@@]3(C)CC[C@H]4[C@H](C)CC[C@@H]([C@H]1C)[C@@]24OO3 (stereo partly drawn) [Hybrid 7d, 2-(5-Methyl-2-oxo-1-(2-(((3R,5aS,6R,8aS,9R,12R,12aR)-3,6,9-trimethyldecahydro-12H-3,12-epoxy[1,2]dioxepino[4,3-i]isochromen-10-yl)oxy)ethyl)indolin-3-ylidene)hydrazine-1-carboxamide] | >3.67 | >5.07 | > 100 µM |

— publication PMC9695041, “The Anti-Breast Cancer Activity of Dihydroartemisinin-5-methylisatin Hybrids Tethered via Different Carbon Spacers” (Molecules, 2022)
